Measurements as given in paper PMC10600239, “Selective MCL-1 inhibitor ABBV-467 is efficacious in tumor models but is associated with cardiac troponin increases in patients” (Communications Medicine, 2023).

Tested on: OCI-AML2 xenografts
Test: OCI-AML2 xenograft efficacy (tumor volume, body weight)
Settings: for Tumor Volume Day 14, Mean / Tumor Volume Day 14, Median / % T/C (mean), Tumor Volume Day 14 / % T/C (median), Tumor Volume Day 14: Day 14 (measure date = dosing begin); for Tumor Volume Day 14, Mean / Tumor Volume Day 18, Mean / Tumor Volume Day 21, Mean: group mean of 8 mice; for Tumor Volume Day 14, Median / Tumor Volume Day 18, Median / Tumor Volume Day 21, Median: group median of 8 mice; for % T/C (mean), Tumor Volume Day 14 / % T/C (median), Tumor Volume Day 14 / % T/C (mean), Tumor Volume Day 18 / % T/C (median), Tumor Volume Day 18 / % T/C (mean), Tumor Volume Day 21 / % T/C (median), Tumor Volume Day 21: control Group 01; for % T/C (mean), Tumor Volume Day 25: mean(T)/mean(C) vs Group 01 (0 mg/kg); for % T/C (median), Tumor Volume Day 25: median(T)/median(C) vs Group 01 (0 mg/kg); for % Mortality: OCI-AML-2 (DSMZ) xenograft, SCID-beige mouse, F
[1] = ABBV-467 […] Q7Dx3 IV, Venetoclax 25 mg/kg QDx14 PO, 5-Aza 8 mg/kg Q7Dx3 IV
[2] = Venetoclax 25 mg/kg QDx14 PO, 5-Aza 8 mg/kg Q7Dx3 IV
[3] = group mean, n=8, ABBV-467 […] Q7Dx3 IV, Venetoclax 25 mg/kg QDx14 PO, 5-Aza 8 mg/kg Q7Dx3 IV
[4] = group median, n=8, ABBV-467 […] Q7Dx3 IV, Venetoclax 25 mg/kg QDx14 PO, 5-Aza 8 mg/kg Q7Dx3 IV

Method: All animal studies were conducted in accordance with the guidelines approved by the Institutional Animal Care and Use Committees of AbbVie. The research protocol was approved by In Vivo Pharmacology at AbbVie prior to study initiation but was not publicly registered or disclosed. Female C.B-17 SCID-beige mice (AMO-1, OPM-2, NCI-H929, and OCI-AML2 xenografts) and female NSG mice (MV4-11-Red.Fluc systemic) were purchased from Charles River Laboratories (Wilmington, MA). Animals were housed in a light cycle-controlled room with HEPA filtration at 22 °C. Animals had nesting and climbing cage topper as the primary environmental enrichment. Animals were inoculated subcutaneously in the right flank with 5 × 10^6 (AMO-1, OPM-2, NCI-H929, and OCI-AML2) or intravenous (IV) with 5 × 10^6 (MV4-11-Red.Fluc). The inoculation volume (0.2 mL) comprised a 50:50 mixture of cells in growth media and Matrigel (BD Biosciences) for subcutaneous injections and 100% phosphate-buffered saline for IV administration. […] Electronic calipers were used to measure the length and width of each tumor 2 to 3 times per week. Tumor volume was estimated by applying the following equation: volume = length × width^2/2. All groups remained blinded during measurements and dosing; only veterinary staff were aware of group identity. When tumors reached approximately 200 mm^3, mice were randomized by match and distributed into treatment and control groups. All xenograft trials were conducted using 5 to 10 mice per group, and all mice were ear tagged and monitored individually throughout the studies.
For combination studies, all compounds were administered within 30 min of each other.
The tumor growth delay (TGD) percentage was determined as the percentage increase of the median time period for the treatment group to reach an arbitrary tumor volume of 1000 mm^3 relative to the vehicle control group. […] A power analysis was conducted using historical data to determine the number of animals required to yield significance of 0.05 at a 30% difference. There were no animals excluded. Data from experiments in vivo were analyzed using the student’s t-test for TGI values and the Mann–Whitney U test for TGD using Excel and GraphPad Prism. Fisher’s exact test was used to probe significance of differences in response frequency.

Structure (SMILES)	Tumor Volume Day 14, Mean [1]	Tumor Volume Day 14, Median [1]	% T/C (mean), Tumor Volume Day 14 [1]	% T/C (median), Tumor Volume Day 14 [1]	Tumor Volume Day 18, Mean [1]	Tumor Volume Day 18, Median [1]	% T/C (mean), Tumor Volume Day 18 [1]	% T/C (median), Tumor Volume Day 18 [1]	Tumor Volume Day 21, Mean [1]	Tumor Volume Day 21, Median [1]	% T/C (mean), Tumor Volume Day 21 [1]	% T/C (median), Tumor Volume Day 21 [1]	Mortality Observation Day 25 (individual animals) [2]	Tumor Volume (mm³) Day 25, Mean [3]	Tumor Volume (mm³) Day 25, Median [4]	% T/C (mean), Tumor Volume Day 25 [1]	% T/C (median), Tumor Volume Day 25 [1]	other results
Nc1ncn([C@@H]2O[C@H](CO)[C@@H](O)[C@H]2O)c(=O)n1 [5-azacitidine, reference compound]																		effect on OCI-AML2 xenograft growth (venetoclax 25 mg/kg QD × 14, azacitidine 8 mg/kg Q7D × 3, or the combination of both): no meaningful effect
Nc1ncn([C@@H]2O[C@H](CO)[C@@H](O)[C@H]2O)c(=O)n1 [A-37426.0 (5-Aza)]	204.71 mm³	196.98 mm³	99.83%	103.17%	420.77 mm³	428.51 mm³	80.49%	74.19%	806.97 mm³	777.56 mm³	88.35%	78.44%	EUTV	1474.66 mm³	1414.73 mm³	76.12%	72.28%	% Mortality (Group 04, 8 mg/kg IV Q7Dx3): 100.00%
CC1(C)CCC(CN2CCN(c3ccc(C(=O)NS(=O)(=O)c4ccc(NCC5CCOCC5)c([N+](=O)[O-])c4)c(Oc4cnc5[nH]ccc5c4)c3)CC2)=C(c2ccc(Cl)cc2)C1 [A-1195425.0 (Venetoclax)]	204.64 mm³	193.77 mm³	99.79%	101.49%	437.16 mm³	415.67 mm³	83.63%	71.96%	934.07 mm³	1005.20 mm³	102.27%	101.40%	EUTV	1624.63 mm³	1781.81 mm³	83.87%	91.03%	% Mortality (Group 03, 25 mg/kg PO QDx14): 100.00%
Cc1c(Cl)c2c(Cl)c(C)c1-c1c(-c3ccc(F)cc3)sc3ncnc(c13)O[C@@H](C(=O)O)Cc1cc(ccc1OCc1ccnc(-c3ccc(OC[C@H]4COCCO4)cc3)n1)OC[C@@H](CN1CCN(C)CC1)O2 [A-1747745.0 (ABBV-467, MCL-1i)]	205.07 mm³	194.10 mm³	100.01%	101.66%	319.69 mm³	302.00 mm³	61.16%	52.29%	701.23 mm³	681.22 mm³	76.77%	68.72%		978.87 mm³	1025.66 mm³	50.53%	52.40%	Mortality Observation Day 28 (individual animals) (Day 28, ABBV-467 […] Q7Dx3 IV, Venetoclax 25 mg/kg QDx14 PO, 5-Aza 8 mg/kg Q7Dx3 IV): EUTV; Tumor Volume (mm³) Day 28, Mean (Day 28, group mean, n=8, ABBV-467 […] Q7Dx3 IV, Venetoclax 25 mg/kg QDx14 PO, 5-Aza 8 mg/kg Q7Dx3 IV): 1642.98 mm³; Tumor Volume (mm³) Day 28, Median (Day 28, group median, n=8, ABBV-467 […] Q7Dx3 IV, Venetoclax 25 mg/kg QDx14 PO, 5-Aza 8 mg/kg Q7Dx3 IV): 1495.57 mm³
